This is an account of results in patent US8071625B2, “Certain chemical entities, compositions, and methods” (Cytokinetics, Inc., priority 2006, dated 2011).

This assay addresses T1, crosslinked smooth muscle actomyosin (chicken gizzard smooth muscle myosin subfragment-1 crosslinked to cardiac or skeletal actin) (Gallus gallus, UniProt P10587).
T1 construct: chicken gizzard smooth muscle myosin subfragment-1; from tissue; host or cells: chicken gizzard
Nature of the assay: Lead optimization pyruvate kinase/horseradish peroxidase/pyruvate oxidase-coupled ATPase assay (compound dose response). In kind it is biochemical. Conditions: read-out: IC50 Arithmetic Mean. On the procedure: Screening assays were performed using a pyruvate kinase and lactate dehydrogenase-coupled ATPase assay containing the following reagents: Potassium PIPES (50 mM), MgCl2 (3 mM), KCl (100 mM), ATP (0.15 mM), DTT (1 mM), BSA (0.1 mg/ml), NADH (0.5 mM), PEP (1.5 mM), pyruvate kinase (4 U/ml), lactate dehydrogenase (8 U/ml), and antifoam (50 ppm) (concentrations expressed are final assay concentrations). The pH was adjusted to 6.80 at 22° C. by addition of potassium hydroxide. Lead optimization assays were performed with a more sensitive pyruvate kinase/horseradish peroxidase/pyruvate oxidase-coupled ATPase assay containing the following reagents: Potassium PIPES (12 mM), MgCl2 (2 mM), KCl (100 mM), ATP (0.15 mM), BSA (0.05 mg/ml), potassium phosphate (2 mM), amplex red (0.1 mM), PEP (0.1 mM), pyruvate kinase (4 U/ml), horseradish peroxidase (0.5 U/ml), pyruvate oxidase (0.5 U/ml), and antifoam (50 ppm) (concentrations expressed are final assay concentrations). The pH was adjusted to 7.00 at 22° C. by addition of potassium hydroxide.
The protein components specific to this assay are chicken gizzard smooth muscle myosin subfragment-1 that has been chemically crosslinked to either cardiac or skeletal actin using an excess of 1-Ethyl-3-[3-dimethylaminopropyl]carbodiimide hydrochloride and N-hydroxysuccinimide. The exact concentration of the crosslinked smooth muscle myosin in the assay is determined empirically, by titration to achieve a desired rate of ATP hydrolysis. The concentration varies between protein preparations due to variations in the fraction of active molecules in each preparation.
Compound dose response assays are performed by first preparing a dilution series of test compound, each with an assay mixture containing potassium PIPES, MgCl2, KCl, ATP, BSA, potassium phosphate, amplex red, PEP, crosslinked smooth muscle actomyosin (subfragment-1), antifoam, and water. The assay is started by adding an equal volume of solution containing potassium Pipes, MgCl2, KCl, BSA, potassium phosphate, pyruvate kinase, horseradish peroxidase, pyruvate oxidase, antifoam, and water. ATP hydrolysis is monitored by measuring the fluorescence of amplex red (excitation at 480 nm, emission at 615 nm). The resulting dose response curve is fit by the 4 parameter equation y=Bottom+((Top-Bottom)/(1+((IC50/X)^Hill))). The IC50 is defined as the concentration at which ATPase activity is midway between the top and bottom of the dose response curve.

As usually defined, the IC50 is the point on the concentration scale where inhibition reaches its midpoint. With `CCc1ccc(NC(=O)OCC2(CC(=O)NCc3ccccc3Cl)CCN(C(=O)CN)CC2)cc1` [2-(1-(2-aminoacetyl)-4-{[N-(4-ethylphenyl)carbamoyloxy]methyl}(4-piperidyl))-N-[(2-chlorophenyl)methyl]acetamide], the half-inhibitory concentration (IC50) was found to be 3.74 µM.

As for `CCc1ccc(NC(=O)OCC(C)(NC(=O)CN)C(=O)NCc2ccccc2Cl)cc1` (stereo not shown) [2-(2-aminoacetylamino)-N-[(2-chlorophenyl)methyl]-3-[N-(4-ethylphenyl)carbamoyloxy]-2-methylpropanamide], the IC50 amounted to 3.99 µM. Then `CCc1ccc(NC(=O)OCCC(NC(=O)CN)C(=O)NCc2ccccc2Cl)cc1` (stereo not shown) [2-(2-aminoacetylamino)-N-[(2-chlorophenyl)methyl]-4-[N-(4-ethylphenyl)carbamoyloxy]butanamide], with 4.37 µM. On to `CCc1ccc(NC(=O)OCC(C)(NC(=O)[C@@H](N)CO)C(=O)NCc2ccccc2Cl)cc1` (stereo partly drawn) [2-((2S)-2-amino-3-hydroxypropanoylamino)-N-[(2-chlorophenyl)methyl]-3-[N-(4-ethylphenyl)carbamoyloxy]-2-methylpropanamide], for which the half-inhibitory concentration (IC50) came to 11.2 µM. For `CCc1ccc(NC(=O)OC[C@H](C)N(CC(=O)O)C(=O)NCc2ccccc2Cl)cc1` [2-(N-{(1S)-2-[N-(4-ethylphenyl)carbamoyloxy]-isopropyl}{[(2-chlorophenyl)methyl]amino}carbonylamino)acetic acid], the IC50 was determined as 1.67 µM. Turning to `CCc1ccc(NC(=O)OCC(C)(NC(C)=O)C(=O)NCc2ccccc2Cl)cc1` (stereo not shown) [2-(acetylamino)-N-[(2-chlorophenyl)methyl]-3-[N-(4-ethylphenyl)carbamoyloxy]-2-methylpropanamide], the IC50 stood at 3.14 µM. With `CCc1ccc(NC(=O)OCC(NC(C)=O)C(=O)NCc2ccccc2Cl)cc1` (stereo not shown) [2-(acetylamino)-N-[(2-chlorophenyl)methyl]-3-[N-(4-ethylphenyl)carbamoyloxy]propanamide], the half-inhibitory concentration (IC50) worked out at 13.7 µM. In the case of `CCc1ccc(NC(=O)OCCN(CCCNC(=O)CNC(=O)OC(C)(C)C)C(=O)NCc2ccccc2Cl)cc1` [2-[(tert-butoxy)carbonylamino]-N-[3-({[(2-chlorophenyl)methyl]amino}-N-{2-[N-(4-ethylphenyl)carbamoyloxy]ethyl}carbonylamino)propyl]acetamide], the half-inhibitory concentration (IC50) was found to be 4.09 µM. As for `CCc1ccc(NC(=O)OCCN(CCN(C)C(=O)CN)C(=O)NCc2ccccc2Cl)cc1` [2-amino-N-[2-({[(2-chlorophenyl)methyl]amino}-N-{2-[N-(4-ethylphenyl)carbamoyloxy]ethyl}carbonylamino)ethyl]-N-methylacetamide], the half-inhibitory concentration (IC50) turned out to be 5.86 µM.

`CCc1ccc(NC(=O)OCCN(CCNC(=O)CN)C(=O)NCc2ccccc2Cl)cc1` [2-amino-N-[2-({[(2-chlorophenyl)methyl]amino}-N-{2-[N-(4-ethylphenyl)carbamoyloxy]ethyl}carbonylamino)ethyl]acetamide]: the half-inhibitory concentration (IC50) was 0.896 µM. As to `CCc1ccc(NC(=O)OCCN(CCCNC(=O)CN)C(=O)NCc2ccccc2Cl)cc1` [2-amino-N-[3-({[(2-chlorophenyl)methyl]amino}-N-{2-[N-(4-ethylphenyl)carbamoyloxy]ethyl}carbonylamino)propyl]acetamide], the IC50 was found to be 0.188 µM. Then `CCc1ccc(NC(=O)OCCN(CCCCNC(=O)CN)C(=O)NCc2ccccc2Cl)cc1` [2-amino-N-[4-({[(2-chlorophenyl)methyl]amino}-N-{2-[N-(4-ethylphenyl)carbamoyloxy]ethyl}carbonylamino)butyl]acetamide], with 0.223 µM.

Regarding `CCc1ccc(NC(=O)OCCC(N)C(=O)NCc2ccccc2Cl)cc1` (stereo not shown) [2-amino-N-[(2-chlorophenyl)methyl]-4-[N-(4-ethylphenyl)carbamoyloxy]butanamide], the IC50 turned out to be 6.81 µM.

Turning to `CN(CCN(CCOC(=O)Nc1ccc(C(F)(F)F)cc1)C(=O)NCc1ccccc1Cl)C(=O)CN` [2-amino-N-{2-[{[(2-chlorophenyl)methyl]amino}-N-(2-{N-[4-(trifluoromethyl)phenyl]carbamoyloxy}ethyl)carbonylamino]ethyl}-N-methylacetamide], the half-maximal inhibitory concentration (IC50) came out at 15 µM. As for `CCc1ccc(NC(=O)OCC2(C(=O)NCc3ccccc3Cl)CCN(C(=O)OCCN)CC2)cc1` [2-aminoethyl 4-{N-[(2-chlorophenyl)methyl]carbamoyl}-4-{[N-(4-ethylphenyl)carbamoyloxy]methyl}piperidinecarboxylate], the 50% inhibitory concentration (IC50) was determined as 0.336 µM. Regarding `CCc1ccc(NC(=O)OCC(C)(NC(=O)CNC(=O)OC(C)(C)C)C(=O)NCc2ccccc2Cl)cc1` (stereo not shown) [2-{2-[(tert-butoxy)carbonylamino]acetylamino}-N-[(2-chlorophenyl)methyl]-3-[N-(4-ethylphenyl)carbamoyloxy]-2-methylpropanamide], the concentration for half-maximal inhibition (IC50) turned out to be 19.4 µM. Consider `CCc1ccc(NC(=O)CCC2(C(=O)NCc3ccccc3C)CCN(C(=O)CN)CC2)cc1` [3-(1-(2-aminoacetyl)-4-{N-[(2-methylphenyl)methyl]carbamoyl}(4-piperidyl))-N-(4-ethylphenyl)propanamide], for which the IC50 was determined as 15.3 µM. Next, `CCc1ccc(NC(=O)OCCN(C)C(=O)CCc2ccccc2Cl)cc1` [3-(2-chlorophenyl)-N-{2-[N-(4-ethylphenyl)carbamoyloxy]ethyl}-N-methylpropanamide]: 0.875 µM; `CCc1ccc(NC(=O)OCC2(C(=O)NCc3ccccc3Cl)CCN(C(=O)C(N)CC(=O)O)CC2)cc1` (stereo not shown) [3-amino-4-(4-{N-[(2-chlorophenyl)methyl]carbamoyl}-4-{[N-(4-ethylphenyl)carbamoyloxy]methyl}piperidyl)-4-oxobutanoic acid]: 1.53 µM. Then `CCc1ccc(NC(=O)OCC(C)(CCNC(=O)CN)C(=O)NCc2ccccc2Cl)cc1` (stereo not shown) [4-(2-aminoacetylamino)-N-[(2-chlorophenyl)methyl]-2-{[N-(4-ethylphenyl)carbamoyloxy]methyl}-2-methylbutanamide], with 0.283 µM. On to `CCc1ccc(NC(=O)OCC(C)(CCNC(C)=O)C(=O)NCc2ccccc2Cl)cc1` (stereo not shown) [4-(acetylamino)-N-[(2-chlorophenyl)methyl]-2-{[N-(4-ethylphenyl)carbamoyloxy]methyl}-2-methylbutanamide], for which the IC50 turned out to be 0.742 µM. Next, `CCc1ccc(NC(=O)OCC(C)(CCN)C(=O)NCc2ccccc2Cl)cc1` (stereo not shown) [4-amino-N-[(2-chlorophenyl)methyl]-2-{[N-(4-ethylphenyl)carbamoyloxy]methyl}-2-methylbutanamide]: 1.74 µM. Turning to `CCc1ccc(NC(=O)OCC(C)(CCNC(=O)CNC(=O)OC(C)(C)C)C(=O)NCc2ccccc2Cl)cc1` (stereo not shown) [4-{2-[(tert-butoxy)carbonylamino]acetylamino}-N-[(2-chlorophenyl)methyl]-2-{[N-(4-ethylphenyl)carbamoyloxy]methyl}-2-methylbutanamide], the half-maximal inhibitory concentration (IC50) was 1.3 µM. On to `NC(=O)c1ccc(NC(=O)OCC2(C(=O)NCc3ccccc3Cl)CCOCC2)cc1` [4-{[(4-{N-[(2-chlorophenyl)methyl]carbamoyl}-2H-3,4,5,6-tetrahydropyran-4-yl)methoxy]carbonylamino}benzamide], for which the IC50 came out at 16.1 µM.

As for `CCc1ccc(NC(=O)OCC2(C(=O)NCc3ccccc3Cl)CCN(C(=O)C(N)CN)CC2)cc1` (stereo not shown) [(1-(2,3-diaminopropanoyl)-4-{[N-(4-ethylphenyl)carbamoyloxy]methyl}(4-piperidyl))-N-[(2-chlorophenyl)methyl]carboxamide], the 50% inhibitory concentration (IC50) was 1.02 µM.
